Reference: US20230391772A1, “METHODS AND COMPOSITIONS FOR TARGETED PROTEIN DEGRADATION” (Ranok Therapeutics (Hangzhou) Co. Ltd., priority 2020, published 2023)

Experiments:
[1] = tested on: MIA PaCa-2 human pancreatic carcinoma; test: MIA PaCa-2 CCK-8 proliferation assay; format: cell-based; conditions: MIA PaCa-2 cells
Method in brief: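 KRAS(G12C) lines were used: MIA PaCa-2 with 2 copies, and NCI-H358 and NCI-H23 with 1 copy each. Cells were treated with 3-fold compound dilutions from 20 μM to 1.02 nM, and proliferation was read by CCK-8 absorbance. % inhibition was calculated against DMSO-treated cells after subtracting the cell-free medium blank.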

HSP90a protein = target: T1, HSP90a protein (Homo sapiens, UniProt P07900); test: HSP90α-binding fluorescent polarization (FP) assay, BODIPY-labeled RNK04010 probe; conditions: FP competition with RNK04010 (BODIPY-labeled), 5 nM, 300 min at 25° C.
T1 construct: purchased BPS Bioscience 50298
Method in brief: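 Polarization signal was read after equilibration at 25° C, for 120 min with FITC-geldanamycin or 300 min with the BODIPY-tagged RNK04010 probe, each at 5 nM final. Compounds spanned 20 μM down to 5.2 nM in 2.5-fold dilutions against the HSP90a N-terminal domain.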

KRAS(G12C) [2] = target: T2, KRAS(G12C) (Homo sapiens, UniProt P01116, G12C); test: KRAS(G12C)/SOS1 homogeneous time-resolved fluorescence (HTRF) assay; parameters: purchased Cisbio 63ADK000CB16PEG; conditions: absence of GTP, 4° C. for 3 hr, read-out: KRAS (G12C) binding
Method in brief: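 HTRF kit measuring compound-induced block of KRAS(G12C)-SOS1 interaction without GTP. Compounds tested as 3-fold serial dilutions down to 1.02 nM, incubated with reaction components 3 h at 4 °C in sealed plates before fluorescence read.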

KRAS(G12C) [3] = target: T2, KRAS(G12C); test: KRAS(G12C) Western blot protein degradation assay in LU65A cells; format: cell-based; parameters: LU65A human lung cancer cell line, which expresses KRAS(G12C); host or cells: LU65A; conditions: 6 hr
Method in brief: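 Cells treated with compound at various concentrations at 37 °C for 48 hr (MIA PaCa-2) or 6 hr (LU65A), then lysed in RIPA. Protein-normalized lysates immunoblotted for KRAS with β-actin, fluorescence quantified; DC50 is the concentration giving 50% of maximal KRAS degradation.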

Row | Compound | EC50 ([1]; Homo sapiens, MIA PaCa-2, 72 h) [µM] | IC50 (HSP90a protein) [µM] | IC50 (KRAS(G12C) [2]) [µM] | DC50 (KRAS(G12C) [3]) [µM] | EC50 ([1]; 72 hr) [µM]
1 | C=CC(=O)N1CCN(c2nc(OCCN3CCN(C(=O)C4CCN(Cc5ccc(-n6c(O)nnc6-c6cc(C(C)C)c(O)cc6O)cc5)CC4)CC3)nc3c2CCN(c2cccc4cccc(Cl)c24)C3)C[C@@H]1CC#N [Compound 192, (S)-2-(1-acryloyl-4-(7-(8-chloronaphthalen-1-yl)-2-(2-(4-(1-(4-(3-(2,4-dihydroxy-5-isopropylphenyl)-5-hydroxy-4H-1,2,4-triazol-4-yl)benzyl)piperidine-4-carbonyl)piperazin-1-yl)ethoxy)-5,6,7,8-tetrahydropyrido[3,4-d]pyrimidin-4-yl)piperazin-2-yl)acetonitrile, trifluoroacetic acid] | 0.1 to 1 | < 0.1 | < 0.1 | 0.1 to 1 | 
2 | C=CC(=O)N1CCN(c2nc(OCCN3CCN(C(=O)C4CCN(Cc5ccc(-n6c(C(N)=O)nnc6-c6cc(C(C)C)c(O)cc6O)cc5)CC4)CC3)nc3c2CCN(c2cccc4cccc(Cl)c24)C3)C[C@@H]1CC#N [Compound 193, (S)-4-(4-((4-(4-(2-((4-(4-acryloyl-3-(cyanomethyl)piperazin-1-yl)-7-(8-chloronaphthalen-1-yl)-5,6,7,8-tetrahydropyrido[3,4-d]pyrimidin-2-yl)oxy)ethyl)piperazine-1-carbonyl)piperidin-1-yl)methyl)phenyl)-5-(2,4-dihydroxy-5-isopropylphenyl)-4H-1,2,4-triazole-3-carboxamide] | 0.1 to 1 | < 0.1 | < 0.1 | 0.1 to 1 | 
3 | C=CC(=O)N1CCN(c2nc(OCCN3CCN(C(=O)C4CCN(Cc5ccc(-n6c(C(=O)NCC(F)(F)F)nnc6-c6cc(C(C)C)c(O)cc6O)cc5)CC4)CC3)nc3c2CCN(c2cccc4cccc(Cl)c24)C3)C[C@@H]1CC#N [Compound 206, (S)-4-(4-((4-(4-(2-((4-(4-acryloyl-3-(cyanomethyl)piperazin-1-yl)-7-(8-chloronaphthalen-1-yl)-5,6,7,8-tetrahydropyrido[3,4-d]pyrimidin-2-yl)oxy)ethyl)piperazine-1-carbonyl)piperidin-1-yl)methyl)phenyl)-5-(2,4-dihydroxy-5-isopropylphenyl)-N-(2,2,2-trifluoroethyl)-4H-1,2,4-triazole-3-carboxamide, trifluoroacetic acid] | 0.1 to 1 | < 0.1 | 0.1 to 1 | > 1 | 
4 | C=CC(=O)N1CCN(c2nc(OCCN3CCN(Cc4ccc(-n5c(O)nnc5-c5cc(C)c(O)cc5O)cc4)CC3)nc3c2CCN(c2cccc4cccc(Cl)c24)C3)C[C@@H]1CC#N [Compound 213, (S)-2-(1-acryloyl-4-(7-(8-chloronaphthalen-1-yl)-2-(2-(4-(4-(3-(2,4-dihydroxy-5-methylphenyl)-5-hydroxy-4H-1,2,4-triazol-4-yl)benzyl)piperazin-1-yl)ethoxy)-5,6,7,8-tetrahydropyrido[3,4-d]pyrimidin-4-yl)piperazin-2-yl)acetonitrile] | > 1 | < 0.1 | 0.1 to 1 | > 1 | 
5 | C=CC(=O)N1CCN(c2nc(OCC3CN(C(=O)C4CCN(Cc5ccc(-n6c(C(=O)NCC(F)(F)F)nnc6-c6cc(C)c(O)cc6O)cc5)CC4)C3)nc3c2CCN(c2cccc4cccc(Cl)c24)C3)C[C@@H]1CC#N [Compound 219, (S)-4-(4-((4-(3-(((4-(4-acryloyl-3-(cyanomethyl)piperazin-1-yl)-7-(8-chloronaphthalen-1-yl)-5,6,7,8-tetrahydropyrido[3,4-d]pyrimidin-2-yl)oxy)methyl)azetidine-1-carbonyl)piperidin-1-yl)methyl)phenyl)-5-(2,4-dihydroxy-5-methylphenyl)-N-(2,2,2-trifluoroethyl)-4H-1,2,4-triazole-3-carboxamide] | > 1 | < 0.1 | 0.1 to 1 | > 1 | 
6 | C=CC(=O)N1CCN(c2nc(OCC3(CN4CCN(Cc5ccc(-n6c(C(=O)NCC)nnc6-c6cc(C(C)C)c(O)cc6O)cc5)CC4)CC3)nc3c2CCN(c2cccc4cccc(Cl)c24)C3)C[C@@H]1CC#N [Compound 285, 4-{4-[(4-{[1-({[7-(8-chloronaphthalen-1-yl)-4-[(3S)-3-(cyanomethyl)-4-(prop-2-enoyl)piperazin-1-yl]-5H,6H,8H-pyrido[3,4-d]pyrimidin-2-yl]oxy}methyl)cyclopropyl]methyl}piperazin-1-yl)methyl]phenyl}-5-(2,4-dihydroxy-5-isopropylphenyl)-N-ethyl-1,2,4-triazole-3-carboxamide] | < 0.1 |  | < 0.1 | 0.1 to 1 | 
7 | C=C(F)C(=O)N1CCN(c2nc(OC[C@@H]3CC[C@H](CN4CCN(Cc5ccc(-n6c(O)nnc6-c6cc(C(C)C)c(O)cc6O)cc5)CC4)N3C)nc3c2CCN(c2cccc4ccccc24)C3)C[C@@H]1CC#N [Compound 286, 2-[(2S)-4-(2-{[(2S,5R)-5-{[4-({4-[3-(2,4-dihydroxy-5-isopropylphenyl)-5-hydroxy-1,2,4-triazol-4-yl]phenyl}methyl)piperazin-1-yl]methyl}-1-methylpyrrolidin-2-yl]methoxy}-7-(naphthalen-1-yl)-5H,6H,8H-pyrido[3,4-d]pyrimidin-4-yl)-1-(2-fluoroprop-2-enoyl)piperazin-2-yl]acetonitrile] | < 0.1 |  | 0.1 to 1 | > 1 | 
8 | C=C(F)C(=O)N1CCN(c2nc(OC[C@@H]3CC[C@H](CN4CCN(Cc5ccc(-n6c(C(=O)NCC)nnc6-c6cc(C(C)C)c(O)cc6O)cc5)CC4)N3C)nc3c2CCN(c2cccc4ccccc24)C3)C[C@@H]1CC#N [Compound 287, 4-{4-[(4-{[(2R,5S)-5-[({4-[(3S)-3-(cyanomethyl)-4-(2-fluoroprop-2-enoyl)piperazin-1-yl]-7-(naphthalen-1-yl)-5H,6H,8H-pyrido[3,4-d]pyrimidin-2-yl}oxy)methyl]-1-methylpyrrolidin-2-yl]methyl}piperazin-1-yl)methyl]phenyl}-5-(2,4-dihydroxy-5-isopropylphenyl)-N-ethyl-1,2,4-triazole-3-carboxamide] | < 0.1 |  | 0.1 to 1 | > 1 | 
9 | C=CC(=O)N1CCN(c2nc(OC[C@@H]3CC[C@H](CN4CCN(Cc5ccc(-n6c(C(=O)NCC)nnc6-c6cc(C(C)C)c(O)cc6O)cc5)CC4)N3C)nc3c2CCN(c2cccc4ccccc24)C3)C[C@@H]1CC#N [Compound 288, 4-{4-[(4-{[(2R,5S)-5-[({4-[(3S)-3-(cyanomethyl)-4-(prop-2-enoyl)piperazin-1-yl]-7-(naphthalen-1-yl)-5H,6H,8H-pyrido[3,4-d]pyrimidin-2-yl}oxy)methyl]-1-methylpyrrolidin-2-yl]methyl}piperazin-1-yl)methyl]phenyl}-5-(2,4-dihydroxy-5-isopropylphenyl)-N-ethyl-1,2,4-triazole-3-carboxamide] | < 0.1 |  | < 0.1 | > 1 | 
10 | C=CC(=O)N1CCN(c2nc(OC[C@@H]3CC[C@H](CN4CCN(Cc5ccc(-n6c(C(=O)NCC)nnc6-c6cc(C(C)C)c(O)cc6O)cc5)CC4)N3C)nc3c2CCN(c2cccc4cccc(C)c24)C3)C[C@@H]1CC#N [Compound 289, 4-{4-[(4-{[(2R,5S)-5-[({4-[(3S)-3-(cyanomethyl)-4-(prop-2-enoyl)piperazin-1-yl]-7-(8-methylnaphthalen-1-yl)-5H,6H,8H-pyrido[3,4-d]pyrimidin-2-yl}oxy)methyl]-1-methylpyrrolidin-2-yl]methyl}piperazin-1-yl)methyl]phenyl}-5-(2,4-dihydroxy-5-isopropylphenyl)-N-ethyl-1,2,4-triazole-3-carboxamide] | < 0.1 |  | < 0.1 | > 1 | 
11 | C=CC(=O)N1CCN(c2nc(OC[C@@H]3C[C@H](N4CCN(CC5CCN(Cc6ccc7c(c6)CN(C(=O)c6cc(C(C)C)c(O)cc6O)C7)CC5)CC4)CN3C)nc3c2CCN(c2cccc4cccc(Cl)c24)C3)C[C@@H]1CC#N [Compound 290, 2-[(2S)-4-[7-(8-chloronaphthalen-1-yl)-2-{[(2S,4S)-4-{4-[(1-{[2-(2,4-dihydroxy-5-isopropylbenzoyl)-1,3-dihydroisoindol-5-yl]methyl}piperidin-4-yl)methyl]piperazin-1-yl}-1-methylpyrrolidin-2-yl]methoxy}-5H,6H,8H-pyrido[3,4-d]pyrimidin-4-yl]-1-(prop-2-enoyl)piperazin-2-yl]acetonitrile] | < 0.1 |  | < 0.1 | > 1 | 
12 | (S)-4-(4-((4-(1-(2-((4-(4-acryloyl-3-(cyanomethyl)piperazin-1-yl)-7-(8-chloronaphthalen-1-yl)-5,6,7,8-tetrahydropyrido[3,4-d]pyrimidin-2-yl)oxy)ethyl)piperidine-4-carbonyl)piperazin-1-yl)methyl)phenyl)-5-(2,4-dihydroxy-5-methylphenyl)-N-(2,2,2-trifluoroethyl)-4H-1,2,4-triazole-3-carboxamide [Compound 257] |  |  | < 0.1 | 0.1 to 1 | 0.1 to 1
